From patent US20100029775A1, “RENIN INHIBITORS FOR THE PREVENTION AND TREATMENT OF HYPERTENSION IN OBESE PATIENTS” (priority 2006, published 2010)
Marks after values point to notes of the source that are not given here.

Tested on: obese patients with hypertension
Test: Randomized, double-blind, multicenter clinical study: add-on treatment in grade 3 obese hypertensive patients who did not respond to HCTZ 25 mg
Format: in vivo, human
Conditions: for BP control rate (in words): grade 3 obesity patients, comparison between treatment groups
From the text: The effect of Aliskiren to treat hypertension in patients with obesity was investigated in a clinical study. […] [table]

[1] = Grade 3 obesity (BMI ≧ 40 kg/m^2), least squares mean ± SEM change from baseline at wk 12 endpoint (ANCOVA; intent-to-treat), add-on to HCTZ 25 mg, dose doubled after 4 weeks

Question: For `COCCCOc1cc(C[C@@H](C[C@H](N)[C@@H](O)C[C@H](C(=O)NCC(C)(C)C(N)=O)C(C)C)C(C)C)ccc1OC` [aliskiren, 2(S),4(S),5(S),7(S)—N-(3-amino-2,2-dimethyl-3-oxopropyl)-2,7-di(1-methylethyl)-4-hydroxy-5-amino-8-[4-methoxy-3-(3-methoxy-propoxy)phenyl]-octanamide], which “BP control rate (in words)” value is on record?
Answer: Its value is “highly effective BP control”.

Question: What does the source list for `NS(=O)(=O)c1cc2c(cc1Cl)NCNS2(=O)=O` [PBO/HCTZ, hydrochlorothiazide]?
Answer: Change in DBP, mmHg [1]: −5.9 ± 2.2 mmHg; Change in SBP, mmHg [1]: −7.1 ± 3.2 mmHg; BP control rate (Grade 3 obesity (BMI ≧ 40 kg/m^2), patients reaching <140/90 mmHg, wk 12 endpoint, logistic regression model): 16.7%**; BP control rate (in words): lower control rates
